Laboratory results published in ChEMBL document CHEMBL5244223, “l,8-Naphthalimide based DNA intercalators and anticancer agents. A systematic review from 2007 to 2017” (Eur J Med Chem, 2018).
In brackets after ≈: the same amount, converted by molar mass.

Legend:
[1] = test system: Staphylococcus epidermidis; experiment: Antibacterial activity against Staphylococcus epidermidis MTCC 435 assessed as inhibition of bacterial growth by agar well diffusion assay; assay type: functional
Staphylococcus aureus = experiment: Antibacterial activity against Staphylococcus aureus MTCC 96 assessed as inhibition of bacterial growth by agar well diffusion assay; assay type: functional
Calf thymus DNA = experiment: Binding affinity to calf thymus DNA assessed as DNA intercalation by measuring change in melting temperature by thermal denaturation assay; assay type: nucleic-acid assay; details: Bos taurus
Pseudomonas aeruginosa = experiment: Antibacterial activity against Pseudomonas aeruginosa MTCC 741 assessed as inhibition of bacterial growth by agar well diffusion assay; assay type: functional
Escherichia coli = experiment: Antibacterial activity against Escherichia coli MTCC 443 assessed as inhibition of bacterial growth by agar well diffusion assay; assay type: functional
CCRF-CEM = experiment: Antiproliferative activity against human CEM cells assessed as inhibition of cell proliferation incubated for 48 hrs by coulter counter assay; assay type: functional, cell-based
HeLa [2] = experiment: Antiproliferative activity against human HeLa cells assessed as inhibition of cell proliferation incubated for 48 hrs by coulter counter assay; assay type: functional, cell-based
[3] = Antiproliferative activity against human HMEC-1 cells assessed as inhibition of cell proliferation incubated for 48 hrs by coulter counter assay; assay type: toxicity, cell-based
L1210 = experiment: Antiproliferative activity against mouse L1210 cells assessed as inhibition of cell proliferation incubated for 48 hrs by coulter counter assay; assay type: functional, cell-based; details: L1210, 48 h
K562 [4] = experiment: Antiproliferative activity against human K562 cells assessed as inhibition of cell proliferation incubated for 48 hrs by MTT assay; assay type: functional, cell-based; details: K562, 48 h
MDA-MB-231 = experiment: Antiproliferative activity against human MDA-MB-231 cells assessed as inhibition of cell proliferation incubated for 48 hrs by MTT assay; assay type: functional, cell-based; details: MDA-MB-231, 48 h
HepG2 = experiment: Antiproliferative activity against human HepG2 cells assessed as inhibition of cell proliferation incubated for 48 hrs by MTT assay; assay type: functional, cell-based; details: HepG2, 48 h
HCT-116 = experiment: Antiproliferative activity against human HCT-116 cells assessed as inhibition of cell proliferation incubated for 48 hrs by MTT assay; assay type: functional, cell-based; details: HCT-116, 48 h
A549 = experiment: Cytotoxicity against human A549 cells assessed as inhibition of cell growth incubated for 48 hrs by MTT assay; assay type: functional, cell-based; details: A549, 48 h
HeLa [5] = experiment: Cytotoxicity against human HeLa cells assessed as inhibition of cell growth incubated for 48 hrs by MTT assay; assay type: functional, cell-based
K562 [6] = experiment: Cytotoxicity against human K562 cells assessed as inhibition of cell growth incubated for 48 hrs by MTT assay; assay type: functional, cell-based; details: K562, 48 h
SMMC-7721 = experiment: Antiproliferative activity against human SMMC-7721 cells assessed as inhibition of cell proliferation incubated for 48 hrs by MTT assay; assay type: functional, cell-based; details: SMMC-7721, 48 h

SMILES | IC50 (CCRF-CEM) [µM] | IC50 (HeLa [2]) [µM] | IC50 at 48 h [3] [µM] | IC50 (L1210) [µM] | other results
O=C1c2cccc3cccc(c23)C(=O)N1c1nc(-c2cc3ccccc3oc2=O)cs1 | – | – | – | – | MIC [1]: 18.8 µg/mL (≈ 44.2 µM); MIC (Staphylococcus aureus): 18.8 µg/mL (≈ 44.2 µM); ΔTm (Calf thymus DNA): 0.1 °C; MIC (Pseudomonas aeruginosa): 18.8 µg/mL (≈ 44.2 µM); MIC (Escherichia coli): 18.8 µg/mL (≈ 44.2 µM)
CCOP(=O)(CC(=O)NCn1cc(CN2C(=O)c3cccc4cc([N+](=O)[O-])cc(c34)C2=O)nn1)OCC | > 250 | > 250 | > 250 | > 250 | –
NCCCNCC(=O)NCCCN1C(=O)c2cccc3cccc(c23)C1=O | – | – | – | – | IC50 (K562 [4]): 2.86 µM; IC50 (MDA-MB-231): 2.86 µM; IC50 (HepG2): 2.86 µM; IC50 (HCT-116): 2.86 µM
CCOP(=O)(CCn1cc(CN2C(=O)c3cccc4cccc(c34)C2=O)nn1)OCC | > 250 | > 250 | > 250 | > 250 | –
CCOP(=O)(CCOCCn1cc(CN2C(=O)c3cccc4cccc(c34)C2=O)nn1)OCC | > 250 | > 250 | > 250 | > 250 | –
CN(C)CCN1C(=O)c2cccc3cc(NC(=O)CCN)cc(c23)C1=O | – | – | – | – | IC50 (A549): 4.7 µM; IC50 (HeLa [5]): 21.5 µM; IC50 (K562 [6]): 8.5 µM
CN(C)CCN1C(=O)c2cccc3cc(NC(=O)CCCNC(=O)C(Cl)Cl)cc(c23)C1=O | – | – | – | – | IC50 (A549): 4.7 µM; IC50 (HeLa [5]): 21.5 µM; IC50 (K562 [6]): 8.5 µM
CCOP(=O)(CCCCn1cc(CN2C(=O)c3cccc4cc([N+](=O)[O-])cc(c34)C2=O)nn1)OCC | > 250 | > 250 | > 250 | > 250 | –
CN(C)CCN1C(=O)c2cccc3cc(NC(=O)CN)cc(c23)C1=O | – | – | – | – | IC50 (A549): 4.7 µM; IC50 (HeLa [5]): 21.5 µM; IC50 (K562 [6]): 8.5 µM
CCOP(=O)(Cn1cc(CN2C(=O)c3cccc4c(Br)ccc(c34)C2=O)nn1)OCC | > 250 | > 250 | > 250 | > 250 | –
CCOP(=O)(CCOCCn1cc(CN2C(=O)c3cccc4c(Br)ccc(c34)C2=O)nn1)OCC | > 250 | > 250 | > 250 | > 250 | –
O=C(O)c1cn(C2CC2)c2cc(N3CCNCC3)c(F)cc2c1=O [CIPROFLOXACIN] | – | – | – | – | MIC [1]: 18.8 µg/mL (≈ 56.6 µM); MIC (Staphylococcus aureus): 18.8 µg/mL (≈ 56.6 µM); MIC (Pseudomonas aeruginosa): 18.8 µg/mL (≈ 56.6 µM); MIC (Escherichia coli): 18.8 µg/mL (≈ 56.6 µM)
CN(C)CCN1C(=O)c2cccc3cc(NC(=O)CCNC(=O)C(Cl)Cl)cc(c23)C1=O | – | – | – | – | IC50 (A549): 4.7 µM; IC50 (HeLa [5]): 21.5 µM; IC50 (K562 [6]): 8.5 µM
CCOP(=O)(Cn1cc(CN2C(=O)c3cccc4cc([N+](=O)[O-])cc(c34)C2=O)nn1)OCC | > 250 | > 250 | > 250 | > 250 | –
CCOP(=O)(CC(=O)NCn1cc(CN2C(=O)c3cccc4cccc(c34)C2=O)nn1)OCC | > 250 | > 250 | > 250 | > 250 | –
CCOP(=O)(CCCCn1cc(CN2C(=O)c3cccc4c(Br)ccc(c34)C2=O)nn1)OCC | > 250 | > 250 | > 250 | > 250 | –
CCOP(=O)(CCOCn1cc(CN2C(=O)c3cccc4cc([N+](=O)[O-])cc(c34)C2=O)nn1)OCC | > 250 | > 250 | > 250 | > 250 | –
CCOP(=O)(CCOCn1cc(CN2C(=O)c3cccc4c(Br)ccc(c34)C2=O)nn1)OCC | > 250 | > 250 | > 250 | > 250 | –
CCOP(=O)(CC(O)Cn1cc(CN2C(=O)c3cccc4cc([N+](=O)[O-])cc(c34)C2=O)nn1)OCC (stereo not given) | > 250 | > 250 | > 250 | > 250 | –

SMILES | IC50 (CCRF-CEM) [µM] | IC50 (HeLa [2]) [µM] | IC50 at 48 h [3] [µM] | IC50 (L1210) [µM] | other results
CCOP(=O)(CC(=O)NCn1cc(CN2C(=O)c3cccc4c(Br)ccc(c34)C2=O)nn1)OCC | > 250 | > 250 | > 250 | > 250 | –
CCOP(=O)(CCOCn1cc(CN2C(=O)c3cccc4cccc(c34)C2=O)nn1)OCC | > 250 | > 250 | > 250 | > 250 | –
CCOP(=O)(CCn1cc(CN2C(=O)c3cccc4c(Br)ccc(c34)C2=O)nn1)OCC | > 250 | > 250 | > 250 | > 250 | –
CN(C)CCN1C(=O)c2cccc3cc(NC(=O)CNC(=O)C(Cl)Cl)cc(c23)C1=O | – | – | – | – | IC50 (A549): 4.7 µM; IC50 (HeLa [5]): 21.5 µM; IC50 (K562 [6]): 8.5 µM
NCCCCNCCCCNCCCCNCC(=O)NCCCN1C(=O)c2cccc3cccc(c23)C1=O | – | – | – | – | IC50 (K562 [4]): 2.86 µM; IC50 (MDA-MB-231): 2.86 µM; IC50 (HepG2): 2.86 µM; IC50 (HCT-116): 2.86 µM
CCOP(=O)(CC(O)Cn1cc(CN2C(=O)c3cccc4cccc(c34)C2=O)nn1)OCC (stereo not given) | > 250 | > 250 | > 250 | > 250 | –
CN(C)CCN1C(=O)c2cccc3cc(NC(=O)CCCCCNC(=O)C(Cl)Cl)cc(c23)C1=O | – | – | – | – | IC50 (A549): 4.7 µM; IC50 (HeLa [5]): 21.5 µM; IC50 (K562 [6]): 8.5 µM
CCOP(=O)(Cn1cc(CN2C(=O)c3cccc4cccc(c34)C2=O)nn1)OCC | > 250 | > 250 | > 250 | > 250 | –
CN(C)CCN1C(=O)c2cccc3cc(NC(=O)CCCN)cc(c23)C1=O | – | – | – | – | IC50 (A549): 4.7 µM; IC50 (HeLa [5]): 21.5 µM; IC50 (K562 [6]): 8.5 µM
CN(C)CCN1C(=O)c2cccc3cc(NC(=O)CCCCCN)cc(c23)C1=O | – | – | – | – | IC50 (A549): 4.7 µM; IC50 (HeLa [5]): 21.5 µM; IC50 (K562 [6]): 8.5 µM
CCOP(=O)(CCCCn1cc(CN2C(=O)c3cccc4cccc(c34)C2=O)nn1)OCC | > 250 | > 250 | > 250 | > 250 | –
CCOP(=O)(CCOCCn1cc(CN2C(=O)c3cccc4cc([N+](=O)[O-])cc(c34)C2=O)nn1)OCC | > 250 | > 250 | > 250 | > 250 | –
CCOP(=O)(CC(O)Cn1cc(CN2C(=O)c3cccc4c(Br)ccc(c34)C2=O)nn1)OCC (stereo not given) | > 250 | > 250 | > 250 | > 250 | –
CCOP(=O)(CCCn1cc(CN2C(=O)c3cccc4cccc(c34)C2=O)nn1)OCC | > 250 | > 250 | > 250 | > 250 | –
CCOP(=O)(CCn1cc(CN2C(=O)c3cccc4cc([N+](=O)[O-])cc(c34)C2=O)nn1)OCC | > 250 | > 250 | > 250 | > 250 | –
CCOP(=O)(CCCn1cc(CN2C(=O)c3cccc4cc([N+](=O)[O-])cc(c34)C2=O)nn1)OCC | > 250 | > 250 | > 250 | > 250 | –
NCCCNCCCNCC(=O)NCCCN1C(=O)c2cccc3cccc(c23)C1=O | – | – | – | – | IC50 (K562 [4]): 2.86 µM; IC50 (MDA-MB-231): 2.86 µM; IC50 (HepG2): 2.86 µM; IC50 (HCT-116): 2.86 µM
CCOP(=O)(CCCn1cc(CN2C(=O)c3cccc4c(Br)ccc(c34)C2=O)nn1)OCC | > 250 | > 250 | > 250 | > 250 | –
CCCCOC(=O)c1ccc2c3c(cccc13)C(=O)N(CCN(C)C)C2=O | – | – | – | – | IC50 (K562 [4]): > 50 µM; IC50 (SMMC-7721): > 50 µM; IC50 (HepG2): > 50 µM; IC50 (HCT-116): > 50 µM
